“Also recorded” adds a separate entry of the source. Non-standard residues stand in square brackets, D forms with d. Residues, ends and D or L forms follow the SMILES beside them. Sar = CNCC(=O)O
Key:
Aβ1-40 = molecular target: T1, Aβ1-40 (Homo sapiens, UniProt P05067); assay: Thioflavine-T aggregation assay, Aβ1-40 aggregated in the presence of compound; assay type: biochemical
T1 construct: made in house; host or cells: chemical solid-phase peptide synthesis (L-amino acids), RP-HPLC purified
Procedure: (§1) Peptoid modified derivatives of the KLVFFA (SEQ ID NO: 4) sequence were tested using Thioflavine-T aggregation assay to determine whether or not they are capable of forming fibrils themselves. […] In these treatment experiments, 100 μM Aβ40 or Aβ42 was mixed with 1-100 μM of the investigated compound and incubated up to 14 days. […] They were incubated alone or in the presence of peptoid modified derivatives of KLVFFA (SEQ ID NO: 4) sequence at concentrations of 1-100 μM. In addition, peptoid modified derivatives of KLVFFA (SEQ ID NO: 4) sequence were incubated alone as indicated above at the concentration of 100 μM. At the indicated intervals, samples containing 15 μg of incubated peptides were added to 1 mL of 50 mM/L glycine, pH 9.2 and 2 μM/L of Thioflavin-T (Sigma Chemical, Co.; St. Louis, Mo.). Fluorescence was measured at excitation 435 nm and emission 485 nm in a Hitachi F-2000 fluorescence spectrophotometer. A time scan of fluorescence was performed and three values after the decay reached a plateau (280, 290, 300 seconds) were averaged. The background fluorescence of 40 μl of Tris buffer added to 2 μM/L of Thioflavin-T solution was subtracted. Samples were run in duplicate. Differences in amount of fibrils formed by different peptides at particular time points were evaluated by one-way ANOVA followed by Tukey post hoc test.

[1] = In vivo pharmacokinetic studies in rats
[2] = Thioflavine-T aggregation assay, compound incubated alone (own fibril formation); assay type: physicochemical; conditions: compound alone at 100 μM
Procedure: as §1

[3] = test system: eAβ1-x in brain interstitial fluid (ISF); assay: In vivo microdialysis of brain interstitial fluid eAβ in AD transgenic mice; parameters: species or system APPSW/PS1L166P AD transgenic mice; conditions: 100 μM compound by reverse microdialysis into hippocampal CA1
Procedure: Mice were anesthetized with an intraperitoneal injection of Ketamine (50 mg/kg) and Xylazine (10 mg/kg). An MBR-10 guide cannula was stereotactically implanted into the right hippocampus (bregma −3.1 mm, 2.4 mm lateral, 12° angle). Four hours later mice were anesthetized again for the insertion of a BR-4 microdialysis probe with 38 kDa molecular weight cutoff (MWCO) membrane (Cirrito et al., 2008. 2008. Neuron; 58, 42-51) which was introduced through the implanted guide cannula. The probe was positioned so that the microdialysis membrane was almost entirely embedded in the strata radiatum and lacunosum-moleculare of the CA1 hippocampal sector (FIG. 8A). […]
eAβ level in the ISF dialyzate was determined using sandwich ELISA specific for human Aβ1-x. […] Absorbance was read on the Epoch Microplate Spectrophotometer (BioTek Instruments, Inc. Winooski, Vt.). Following background subtraction, absorbance values from serially diluted synthetic Aβ samples were used to generate a standard curve in GraphPad Prism v5.02 (GraphPad Software, Inc., San Diego) using a non-linear curve-fitting algorithm. eAβ concentration in dialysate samples was determined by comparing their absorbance values against the standard curve. […]

[4] = test system: primary hippocampal neurons; assay: Immunocytochemistry and quantification of synaptic protein expression in neurons exposed to Aβ40; assay type: cell-based, C57bL/6 mice
Procedure: P0-P1 pups of C57bL/6 mice were killed by decapitation and brains were removed in aseptic conditions. To establish cultures of primary hippocampal neurons the hippocampi were dissected from both hemispheres under AmScope stereoscopic microscope (AmScope, Chino, Calif.). Fragments of tissue were placed in the ice-cold Ca^2+ and Mg^2+ free Hank's balanced salt solution (HBSS) and gently cut further into fine pieces which were then treated with 0.05% trypsin in HBSS for 10 min at 37° C. to obtain cell suspension. Following addition of 0.1% type-I-S trypsin inhibitor and 0.05% DNase I, the cell suspension was centrifuged at 500×g for 30 sec. The resulting pellet was triturated, centrifuged again at 500×g for 5 min and resuspended in the minimal essential medium (MEM) supplemented with heat-inactivated 10% fetal bovine serum (FBS), 0.5 mM glutamine, streptomycin (50 μg/ml) and penicillin (50 U/ml). The cell suspension was then filtered through a 70-μm mesh, and the cells were counted using hematocytometer (Hausser Scientific, Horsham, Pa.). The cells were seeded on poly-L-lysine coated 12-well plates. For biochemical analysis 5×10^5 cells were seeded directly on the bottom of each well whereas for immunohistochemistry a removable, poly-L-lysine coated round coverslip was placed on the bottom of the well and the number of seeded cells was reduced to 1×10^5 per well. The neurons were allowed to adhere to the surface for four hours and then the medium was replaced with the serum-free Neurobasal medium containing 2% B27 supplement, 0.5 mM glutamine, streptomycin (50 μg/ml) and penicillin (50 U/ml). At three days in vitro (DIV) 5 μM of cytosine-β-D-arabinoside (Ara C) was added for 48 hr to inhibit division of non-neuronal cells. At 7 DIV one well from each preparation of primary hippocampal neurons was randomly selected to determine the purity of the culture. This was done by calculating the ratio of cells immunostained against microtubule-associated protein 2 (MAP2), which is a neuronal specific marker against all cells stained with 4′,6-diamidino-2-phenylindole (DAPI) nucleic acid stain.
Monomerized Aβ40 peptides were diluted in cell culture media and added to neuronal monocultures for 24 or 72 hr.
Coverslip inserts covered by the primary hippocampal neuro^ns were immersed three times in PBS at 37° C., and then in 80% ice-cold methanol for 10 min to fix the neurons, and washed again three times in PBS. […] Biotinylated secondary antibodies (1:1,000) followed by Cy3 conjugated streptavidine (1:500) were used to detected binding of primary Abs to their antigens. […] Immunostained neurons were analyzed under 80i Nikon fluorescent microscope (Nikon Corp. Tokyo, Japan). […]

[5] = 18 DIV neurons, 10 μM Aβ40 plus 5 μM compound, 72 hr

T1 sequence (P05067 672-711): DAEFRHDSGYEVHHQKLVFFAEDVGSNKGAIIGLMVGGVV

CC(C)CC(NC(=O)C(CCCCN)NC(=O)CN)C(=O)NC(C(=O)NC(Cc1ccccc1)C(=O)N(C)CC(=O)NC(C)C(N)=O)C(C)C (stereo not shown) [GKLVFNmgA] (H-GKLVF[Sar]A-NH2; configuration not given here)
inhibitory effect on the aggregation of Aβ1-40 (Aβ1-40; 1 μM compound, 100 μM Aβ1-40 (1:100 compound:Aβ ratio), p<0.001): strong inhibitory effect
dose dependent effect on aggregation of Aβ1-40 (Aβ1-40; 100 μM Aβ1-40, 1-100 μM compound): strong dose dependent effect
blood brain barrier (BBB) penetration [1]: good
detection in the cerebrospinal fluid (CSF) ([1]; following intravenous administration): can be detected
level in plasma after intranasal delivery ([1]; intranasal): High level
level in plasma following oral delivery ([1]; oral): Lesser level
half-life ([1]; rat, in vivo): < 2 h
fibril formation by the compound itself [2]: did not form fibrils itself; also recorded: does not form fibrils itself
hour after the infusion onset from which the increase in eAβ was observed [3]: seventh
NR1 NMDA receptor subunit positive densities, % of the control [4, 5]: 83 % of the control
PSD-95 positive densities, % of the control [4, 5]: 82.3 % of the control
synaptophysin positive densities, % of the control [4, 5]: 84.5 % of the control
effect of compound alone on the expression of NR1, synaptophysin and PSD-95 ([4]; neurons treated with compound alone, no Aβ): no significant effect

— patent US9364449B2, “Peptoid and synthetic oligomers, pharmaceutical compositions and methods of using same” (New York University, priority 2011, dated 2016)
